Data set [1] concerns human embryonic stem cell derived neural stem cells (NSCs). Briefly: Neural Stem Cell Proliferation Assay (neurogenesis assay, ATP levels by CellTiterGlo). The format is cell-based. The note with it: 96 h, compound concentration at which 150% activity of control (100%) is reached, NSC proliferation by ATP level after 4 days incubation, dose response 8 μM to 8 nM. In short, it runs like this:
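Read-out is CellTiterGlo ATP luminescence after 4-day culture (37 °C, 5% CO2) of dual-SMAD-derived human ESC NSCs, dosed 4 h post-seeding at 8 μM to 8 nM (11 points, 2-fold). EC150 marks the concentration reaching 150% of the media-only control (0.25% DMSO).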

Data on 31 compounds can be found in patent US9284321B2, “Piperazino[1,2-a]indol-1-ones and [1,4]diazepino[1,2-a]indol-1-one” (Hoffmann-La Roche Inc., priority 2012, dated 2016).

With `Cc1c2n(c3c(-c4ccncc4)cc(Cl)cc13)CCNC2=O` [Example 91, 8-Chloro-10-methyl-6-pyridin-4-yl-3,4-dihydro-2H-pyrazino[1,2-a]indol-1-one], the melting point is 295 °C. The same compound came in with an EC (150% of control) in data set [1] of 0.017 µM.

For `Cc1c2n(c3c(-c4ccc([N+](=O)[O-])cc4)cc(F)cc13)CCNC2=O` [Example 126, 8-Fluoro-10-methyl-6-(4-nitro-phenyl)-3,4-dihydro-2H-pyrazino[1,2-a]indol-1-one], the melting point was 309 °C. Also, the EC (150% of control) in data set [1] was 0.01 µM.

Consider `COc1ccc(-c2cc(F)c(F)c3cc4n(c23)CCNC4=O)cc1` [Example 33, 8,9-Difluoro-6-(4-methoxy-phenyl)-3,4-dihydro-2H-pyrazino[1,2-a]indol-1-one], for which the melting point is 227.5 °C. The EC (150% of control) in data set [1] was 0.22 µM.

The compound `Cc1c2n(c3c(-c4ccc(Cl)c(F)c4)cc(C#N)cc13)CCCNC2=O` [Example 297, 7-(4-Chloro-3-fluorophenyl)-11-methyl-1-oxo-2,3,4,5-tetrahydro-[1,4]diazepino[1,2-a]indole-9-carbonitrile] registered a melting point of 247.5 °C. The EC (150% of control) in data set [1] is 0.096 µM.

`Cc1c2n(c3c(-c4ccncc4)cc(C#N)cc13)CCCNC2=O` [Example 250, 11-Methyl-1-oxo-7-pyridin-4-yl-2,3,4,5-tetrahydro-[1,4]diazepino[1,2-a]indole-9-carbonitrile] yielded a melting point of 285 °C. The same compound came in with an EC (150% of control) in data set [1] of 0.15 µM.

In the case of `Cc1ccc(-c2cc(C#N)cc3cc4n(c23)CCCNC4=O)cc1F` [Example 253, 7-(3-Fluoro-4-methylphenyl)-1-oxo-2,3,4,5-tetrahydro-[1,4]diazepino[1,2-a]indole-9-carbonitrile], the melting point was found to be 250.5 °C. This compound came in with an EC (150% of control) in data set [1] of 0.65 µM.

Regarding `N#Cc1cc(-c2ccc(F)c(F)c2F)c2c(c1)cc1n2CCCNC1=O` [Example 284, 1-Oxo-7-(2,3,4-trifluorophenyl)-2,3,4,5-tetrahydro-[1,4]diazepino[1,2-a]indole-9-carbonitrile], the melting point worked out at 187 °C. Also, the EC (150% of control) in data set [1] is 0.16 µM.

Take `Cc1ccc(-c2cc(C#N)cc3cc4n(c23)CCNC4=O)cc1` [Example 94, 1-Oxo-6-p-tolyl-1,2,3,4-tetrahydro-pyrazino[1,2-a]indole-8-carbonitrile]: the melting point was determined as 285.5 °C. The same compound returned an EC (150% of control) in data set [1] of 0.011 µM.

Turning to `Cc1c2n(c3c(-c4ccc(C#N)s4)cc(F)cc13)CCNC2=O` [Example 185, 5-(8-Fluoro-10-methyl-1-oxo-3,4-dihydro-2H-pyrazino[1,2-a]indol-6-yl)thiophene-2-carbonitrile], the melting point was found to be 249 °C. In data set [1], this compound had an EC (150% of control) of 0.11 µM.

`Cc1c2n(c3c(-c4ccc(F)c(F)c4)cc(Cl)cc13)CCCNC2=O` [Example 68, 9-Chloro-7-(3,4-difluoro-phenyl)-11-methyl-2,3,4,5-tetrahydro-[1,4]diazepino[1,2-a]indol-1-one] showed a melting point of 254 °C. The EC (150% of control) in data set [1] was 0.12 µM.

For `Cc1c2n(c3c(-c4ccc(N)nc4)cc(C#N)cc13)CCCNC2=O` [Example 251, 7-(6-Aminopyridin-3-yl)-11-methyl-1-oxo-2,3,4,5-tetrahydro-[1,4]diazepino[1,2-a]indole-9-carbonitrile], the melting point is 306 °C. Further, in data set [1], the EC (150% of control) amounted to 0.29 µM.

In turn, `C[C@@H]1CNC(=O)c2cc3cccc(-c4ccccc4)c3n21` [Example 1, (R)-4-Methyl-6-phenyl-3,4-dihydro-2H-pyrazino[1,2-a]indol-1-one] yielded a melting point of 239 °C. Also, the EC (150% of control) in data set [1] is 3.97 µM.

As to `Cc1c2n(c3c(-c4cccc(Cl)c4)cc(Cl)cc13)CCNC2=O` [Example 115, 8-Chloro-6-(3-chloro-phenyl)-10-methyl-3,4-dihydro-2H-pyrazino[1,2-a]indol-1-one], the melting point worked out at 218.5 °C. Moreover, in data set [1], the EC (150% of control) was determined as 0.43 µM.

Take `O=C1NCCn2c1cc1cc(F)cc(-c3ccc(C(F)(F)F)cc3)c12` [Example 25, 8-Fluoro-6-(4-trifluoromethyl-phenyl)-3,4-dihydro-2H-pyrazino[1,2-a]indol-1-one]: the melting point was found to be 346 °C. This compound also yielded an EC (150% of control) in data set [1] of 0.023 µM.

In turn, `O=C1NCCCn2c1cc1cc(F)c(F)c(-c3ccc(Cl)cc3)c12` [Example 43, 7-(4-Chloro-phenyl)-8,9-difluoro-2,3,4,5-tetrahydro-[1,4]diazepino[1,2-a]indol-1-one] had a melting point of 232.5 °C. Besides, the EC (150% of control) in data set [1] was 0.08 µM.

For the compound `Cc1c2n(c3c(-c4ccnc(Cl)c4)cc(C#N)cc13)CCNC2=O` [Example 281, 6-(2-Chloropyridin-4-yl)-10-methyl-1-oxo-3,4-dihydro-2H-pyrazino[1,2-a]indole-8-carbonitrile], the melting point stood at 281 °C. For the same compound, in data set [1], the EC (150% of control) turned out to be 0.22 µM.

Compound `N#Cc1cccc(-c2cc(C#N)cc3cc4n(c23)CCNC4=O)c1` [Example 194, 6-(3-Cyanophenyl)-1-oxo-3,4-dihydro-2H-pyrazino[1,2-a]indole-8-carbonitrile] returned a melting point of 253 °C. Also, in data set [1], the EC (150% of control) came to 1.08 µM.

With `N#Cc1cc(-c2ccc(Cl)c(F)c2)c2c(c1)cc1n2CCNC1=O` [Example 172, 6-(4-Chloro-3-fluoro-phenyl)-1-oxo-1,2,3,4-tetrahydro-pyrazino[1,2-a]indole-8-carbonitrile], the melting point stood at 309 °C. This compound had an EC (150% of control) in data set [1] of 0.045 µM.

For `Cc1c2n(c3c(-c4ccc5c(c4)CCO5)cc(Cl)cc13)CCNC2=O` [Example 116, 8-Chloro-6-(2,3-dihydro-benzofuran-5-yl)-10-methyl-3,4-dihydro-2H-pyrazino[1,2-a]indol-1-one], the melting point was found to be 261 °C. For the same compound, in data set [1], the EC (150% of control) came out at 0.055 µM.

For the compound `Cc1c2n(c3c(-c4ccc(OC(F)(F)F)cc4)cc(F)cc13)CCNC2=O` [Example 149, 8-Fluoro-10-methyl-6-(4-trifluoromethoxy-phenyl)-3,4-dihydro-2H-pyrazino[1,2-a]indol-1-one], the melting point came out at 162 °C. Moreover, the EC (150% of control) in data set [1] was found to be 0.016 µM.

The compound `COc1ccc(-c2cc(C#N)cc3c(C)c4n(c23)CCNC4=O)cc1` [Example 247, 6-(4-Methoxyphenyl)-10-methyl-1-oxo-3,4-dihydro-2H-pyrazino[1,2-a]indole-8-carbonitrile] gave a melting point of 285 °C. In data set [1], this compound gave an EC (150% of control) of 0.03 µM.

Compound `N#Cc1cc(-c2cc(F)c(F)c(F)c2)c2c(c1)cc1n2CCNC1=O` [Example 189, 1-Oxo-6-(3,4,5-trifluorophenyl)-3,4-dihydro-2H-pyrazino[1,2-a]indole-8-carbonitrile] showed a melting point of 304.5 °C. The compound also had an EC (150% of control) in data set [1] of 0.22 µM.

`COc1cc(-c2ccc(F)c(F)c2)c2c(c1)cc1n2CCNC1=O` [Example 212, 6-(3,4-Difluorophenyl)-8-methoxy-3,4-dihydro-2H-pyrazino[1,2-a]indol-1-one] showed a melting point of 216 °C. Further, the EC (150% of control) in data set [1] was found to be 1.24 µM.

As for `CC1CCNC(=O)c2cc3cc(F)cc(-c4ccccc4)c3n21` (racemic) [Example 26, (RS)-9-Fluoro-5-methyl-7-phenyl-2,3,4,5-tetrahydro-[1,4]diazepino[1,2-a]indol-1-one], the melting point turned out to be 232.5 °C. The EC (150% of control) in data set [1] was found to be 0.24 µM.

Compound `N#Cc1cc(-c2ccc([N+](=O)[O-])cc2)c2c(c1)cc1n2CCNC1=O` [Example 232, 6-(4-Nitrophenyl)-1-oxo-3,4-dihydro-2H-pyrazino[1,2-a]indole-8-carbonitrile] registered a melting point of 369.5 °C. In addition, the EC (150% of control) in data set [1] worked out at 0.02 µM.

As for `Cc1cc(-c2cc(C#N)cc3cc4n(c23)CCNC4=O)ccc1F` [Example 231, 6-(4-Fluoro-3-methylphenyl)-1-oxo-3,4-dihydro-2H-pyrazino[1,2-a]indole-8-carbonitrile], the melting point came out at 290 °C. Further, the EC (150% of control) in data set [1] was 0.058 µM.

`Cc1c2n(c3c(-c4ccc(Cl)c(F)c4)cc(C#N)cc13)CCNC2=O` [Example 178, 6-(4-Chloro-3-fluoro-phenyl)-10-methyl-1-oxo-1,2,3,4-tetrahydro-pyrazino[1,2-a]indole-8-carbonitrile] yielded a melting point of 260 °C. In data set [1], the EC (150% of control) is 0.048 µM.

For the compound `Cc1c2n(c3c(-c4ccc(F)nc4)cc(C#N)cc13)CCCNC2=O` [Example 209, 7-(6-Fluoropyridin-3-yl)-11-methyl-1-oxo-2,3,4,5-tetrahydro-[1,4]diazepino[1,2-a]indole-9-carbonitrile], the melting point is 280 °C. Besides, in data set [1], the EC (150% of control) was determined as 0.16 µM.

`Cc1c2n(c3c(-c4cccc(F)c4)cc(C#N)cc13)CCCNC2=O` [Example 289, 7-(3-Fluorophenyl)-11-methyl-1-oxo-2,3,4,5-tetrahydro-[1,4]diazepino[1,2-a]indole-9-carbonitrile] registered a melting point of 261 °C. This compound also gave an EC (150% of control) in data set [1] of 0.035 µM.

The compound `O=C1NCCCn2c1cc1cc(F)cc(-c3ccccc3)c12` [Example 15, 9-Fluoro-7-phenyl-2,3,4,5-tetrahydro-[1,4]diazepino[1,2-a]indol-1-one] had a melting point of 277 °C. The compound also yielded an EC (150% of control) in data set [1] of 0.084 µM.

Compound `COc1ccc(-c2cc(C#N)cc3c(C)c4n(c23)CCCNC4=O)cc1` [Example 262, 7-(4-Methoxyphenyl)-11-methyl-1-oxo-2,3,4,5-tetrahydro-[1,4]diazepino[1,2-a]indole-9-carbonitrile] came in with a melting point of 277 °C. The EC (150% of control) in data set [1] stood at 0.029 µM.

As usually defined, the melting point is the temperature of the solid-liquid transition.
